{"source": "patent US20240209376A1", "about": "“Specific Oligonucleotide-Programmed Readthrough of Nonsense Codons” (UNIVERSITY OF MASSACHUSETTS, priority 2021, published 2024)", "key": {"[1]": {"system": "CAN1-luc expression construct premature stop codon", "experiment": "CAN1-luc expression construct readthrough (rabbit reticulocyte lysate)", "type": "biochemical", "details": "oligo at +8 position downstream of premature stop codon", "description": "FIG. 4 illustrates one embodiment of a CAN1 arginine permease gene/luciferase expression construct (Can1-1uc). Upper panel: A schematic of the construct showing the relative position of a premature stop codon and a Can1 open reading frame and a luciferase gene with a natural terminal stop codon. Lower panel: A deoxyribonucleic acid sequence of the Can1-1uc construct with a TGA premature stop codon and a deoxyribonucleic acid oligo hybridized to the Can1-1uc construct at the +8 nucleotide position downstream of the premature stop codon.\nFIG. 5 presents exemplary data showing readthrough of a CAN1-1uc expression construct premature stop codon with a DNA oligo hybridized at the +8 nucleotide position downstream of the premature stop codon.\nThe DNA antisense oligos contemplated herein were validated using a DNA expression construct comprising a premature stop codon and a luciferase gene. The basic methodology was used a CAN1 gene expression construct encoding an arginine permease amino acid transporter protein. The CAN1 expression construct positions a […] premature stop codon at the terminus of the CAN1 open reading frame subsequently followed by a luciferase open reading frame. See, FIG. 4. The DNA antisense oligo +8(70) having the nucleic acid sequence of 5′-[…]-3′ was then positioned at the +8 nucleic acid position downstream of the first nucleotide of the premature stop codon. […]"}, "[2]": {"system": "CFTR premature stop codon (G542X; UGAC, UGAG) mRNA", "experiment": "511-565 CFTR nanoluciferase construct readthrough (RRL assay)", "type": "biochemical", "details": "for readthrough promotion by fluoride-modified oligos: RRL assay", "description": "(§1) FIG. 6 presents one embodiment of a cystic fibrosis gene/nanoluciferase expression construct (511-565 CFTR). Upper panel: A schematic of the construct showing the relative position of a premature stop codon (UGAG or UGAC) within a cystic fibrosis open reading frame (CFTR) and a luciferase gene with a natural terminal stop codon. Lower panel: A deoxyribonucleic acid sequence of the CFTR construct with a TGA premature stop codon and a deoxyribonucleic acid oligo hybridized to the CFTR construct at the +8 nucleotide position downstream of the premature stop codon.\nIn one embodiment, the present invention contemplates a modified cystic fibrosis transmembrane conductance regulator (CFTR) deoxyribonucleic acid (DNA) construct. In one embodiment, the modified CFTR DNA construct comprises a CFTR open reading frame comprising a premature TGA stop codon. In one embodiment, the TGA premature stop codon is a G542X mutation. In one embodiment, the modified CFTR DNA construct further comprises a nanoluciferase gene and a natural stop codon. In one embodiment, the modified CFTR mRNA construct molecule is hybridized to a single stranded DNA antisense oligo at the +8 nucleotide position downstream of a TGA premature stop codon. In one embodiment, the DNA antisense oligo is 5′-[…]-3′. See, FIG. 6.\n(§2) A 511-565 CFTR DNA expression vector construct was designed with several different codon configurations: i) a single wild type sense codon (“GGAG”) and a subsequent wild-type stop codon; ii) a premature stop codon “TGAG” comprising a G542X mutation (e.g., a strong stop codon); and iii) a premature stop codon “TGAC” comprising a G542X mutation (a weak stop codon) rendering an artificial readthrough-prone context. […] See, FIG. 7."}, "[3]": {"system": "CFTR wild type construct without premature stop codon (GGAG)", "experiment": "511-565 CFTR nanoluciferase construct expression, wild type", "type": "biochemical", "details": "increasing G418 concentrations", "description": "as §1\nFIG. 8 presents exemplary data showing the effect of the aminoglycoside G418 on 511-565 CFTR construct expression.\nas §2"}, "[4]": {"system": "CFTR mRNA levels (NMD-mediator SMG1)", "experiment": "mRNA analysis by qPCR in CFF-16HBEge cell lines", "type": "cell-based", "description": "The example presents the results of mRNA analysis by quantitative polymerase chain reaction and (qPCR) and protein analysis by Western Blot."}, "[5]": {"details": "cited from earlier work"}, "[6]": {"details": "experimental data; cited from earlier work"}}, "note": "“Also recorded” adds a separate entry of the source."}
{"compound": "5′-GCGCCGGGCCTTTCTTTATGTTTTTGGCGT-3′ (DNA, backbone and methylation of C not given here) [+8(70), DNA antisense oligo at +8 position of CAN1-luc construct]", "values": [{"measurement": "readthrough of premature stop codon in CAN1-luc construct", "setting": "[1]", "result": "increases readthrough of a premature stop codon"}]}
{"compound": "CN[C@@H]1[C@@H](O)[C@@H](O[C@H]2[C@H](O)[C@@H](O[C@H]3O[C@H]([C@H](C)O)[C@@H](O)[C@H](O)[C@H]3N)[C@H](N)C[C@@H]2N)OC[C@]1(C)O", "note": "[G418]", "values": [{"measurement": "premature stop codon readthrough, G418 alone", "setting": "[2]; UGAG and UGAC constructs, increasing G418 concentrations", "result": "promotes premature stop codon (UGAG and UGAC) readthrough in a concentration-dependent manner; also recorded: increasing expression of premature stop codon constructs"}, {"measurement": "readthrough rate at 0.5 μM and 0.1 μM G418 versus 1 μM G418", "setting": "[2]; weak (UGAC) and strong (UGAG) premature codon, +8(66) combination experiment (FIG. 9)", "result": "significantly higher readthrough rate"}, {"measurement": "wild type sense codon (GGAG) construct expression, G418 alone", "setting": "[3]", "result": "inhibits wild type sense codon (GGAG) readthrough in a concentration-dependent manner; also recorded: decreases the expression of wild type construct"}]}
{"compound": "CCN(CC)S(=O)(=O)c1cc(Nc2nccc(-c3ccnc(-c4ccc(NC(=O)NC)cc4)c3)n2)ccc1Cl", "note": "[SMG1i]", "values": [{"measurement": "CFTR WT mRNA", "setting": "[4]", "result": "smaller increase"}, {"measurement": "mRNA levels of the PTC alleles", "setting": "[4]", "result": "restores mRNA levels of the PTC alleles"}]}
{"compound": "NC[C@H]1O[C@H](O[C@H]2[C@H](O)[C@@H](O[C@H]3O[C@H](CO)[C@@H](O)[C@H](N)[C@H]3O)[C@H](N)C[C@@H]2N)[C@H](N)C[C@@H]1O", "note": "[tobramycin]", "values": [{"measurement": "rise in NAG, once daily arm less than three times daily regimen", "setting": "[5]; adults and children", "result": 33, "unit": "%"}, {"measurement": "elimination rate, once daily versus three times daily group", "setting": "[5]; once daily group mostly dosed in the evening", "result": "lower elimination rate"}, {"measurement": "serum creatinine level during the course of treatment", "setting": "[5]; paediatric group, single daily dose, compared with a rise with three divided doses", "result": "decreased"}, {"measurement": "efficacy, single daily versus multiple daily dosing regimen", "setting": "[5]; patients with CF", "result": "equal efficacy"}]}
{"compound": "TCCACTCAGTGTGATTCCAC^F (2'-fluoro at 20, other sugars and backbone not given here; one 2'-fluoro at 3'-terminal nucleotide) [+8(47) oligo withone 2′-fluoride modification]", "values": [{"measurement": "readthrough promotion by fluoride-modified oligos", "setting": "[2]", "result": "promote readthrough in an RRL assay with improved stability and/or efficiency"}]}
{"compound": "U^FCCAC^FTCAG^FTGTG^FATTC^FCAC^F", "values": [{"measurement": "readthrough promotion by fluoride-modified oligos", "setting": "[2]", "result": "promote readthrough in an RRL assay with improved stability and/or efficiency"}]}
{"compound": "gentamicin", "values": [{"measurement": "relative toxicity among aminoglycosides", "setting": "[6]", "result": "more toxic than tobramycin and amikacin"}]}
